In the experiment the target is T1, EGFR (ErbB1) d746-750 (Homo sapiens, UniProt P00533, DEL746-750).
T1 construct: purchased Thermo Fisher Scientific (Life Technologies) SelectScreen
Put plainly: SelectScreen LanthaScreen. Type of experiment: binding. The conditions noted are these: 1 µM. In short, it runs like this: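 NU5455 was profiled across the SelectScreen Broad panel of kinase activity and binding assays. Z'LYTE reactions such as CSF1R ran at apparent Km ATP, while the Adapta CAMK1 assay used ATP listed as 10. Values are given as percent.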
A general note: TR-FRET usually uses a lanthanide donor and a delayed reading to cut background.

The structures appear in SMILES notation.

T1 sequence (P00533 with tags, fused parts or gaps DEL746-750 limits assumed): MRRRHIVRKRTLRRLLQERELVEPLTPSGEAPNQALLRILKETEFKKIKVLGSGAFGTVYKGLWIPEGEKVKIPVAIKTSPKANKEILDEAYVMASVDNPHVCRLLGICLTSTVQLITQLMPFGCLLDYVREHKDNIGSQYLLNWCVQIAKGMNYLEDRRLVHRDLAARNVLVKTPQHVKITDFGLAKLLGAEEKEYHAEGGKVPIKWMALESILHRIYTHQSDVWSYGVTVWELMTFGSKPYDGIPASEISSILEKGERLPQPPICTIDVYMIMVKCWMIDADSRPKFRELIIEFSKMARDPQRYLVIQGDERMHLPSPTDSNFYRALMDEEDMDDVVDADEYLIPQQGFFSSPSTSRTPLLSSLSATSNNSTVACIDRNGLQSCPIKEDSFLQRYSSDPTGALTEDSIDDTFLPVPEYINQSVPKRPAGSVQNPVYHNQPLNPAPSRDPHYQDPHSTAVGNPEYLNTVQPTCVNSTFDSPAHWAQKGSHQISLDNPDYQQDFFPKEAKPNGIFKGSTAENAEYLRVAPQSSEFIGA

`CN(C(=O)CN1CCOCC1)c1ccc2sc3c(-c4cccc5c(=O)cc(N6CC7CCC(C6)O7)oc45)cccc3c2c1` [NU5455]: the “% displacement” value is 5.8%.

These data come from paper PMC6934184, “Selective DNA-PKcs inhibition extends the therapeutic index of localized radiotherapy and chemotherapy” (The Journal of Clinical Investigation, 2019).
